Reference: patent publication US8685970B2, “Quinolines and related analogs as sirtuin modulators” (GlaxoSmithKline, LLC, priority 2008, dated 2014)

target: T1, SIRT1 (Homo sapiens, UniProt Q96EB6); experiment: Mass spectrometry based SIRT1 deacetylation assay (activation); format: biochemical; settings: 10 nM SIRT1, 0.5 μM peptide substrate, 120 μM βNAD+, 25 min at 25° C.
T1 sequence (Q96EB6 1-747): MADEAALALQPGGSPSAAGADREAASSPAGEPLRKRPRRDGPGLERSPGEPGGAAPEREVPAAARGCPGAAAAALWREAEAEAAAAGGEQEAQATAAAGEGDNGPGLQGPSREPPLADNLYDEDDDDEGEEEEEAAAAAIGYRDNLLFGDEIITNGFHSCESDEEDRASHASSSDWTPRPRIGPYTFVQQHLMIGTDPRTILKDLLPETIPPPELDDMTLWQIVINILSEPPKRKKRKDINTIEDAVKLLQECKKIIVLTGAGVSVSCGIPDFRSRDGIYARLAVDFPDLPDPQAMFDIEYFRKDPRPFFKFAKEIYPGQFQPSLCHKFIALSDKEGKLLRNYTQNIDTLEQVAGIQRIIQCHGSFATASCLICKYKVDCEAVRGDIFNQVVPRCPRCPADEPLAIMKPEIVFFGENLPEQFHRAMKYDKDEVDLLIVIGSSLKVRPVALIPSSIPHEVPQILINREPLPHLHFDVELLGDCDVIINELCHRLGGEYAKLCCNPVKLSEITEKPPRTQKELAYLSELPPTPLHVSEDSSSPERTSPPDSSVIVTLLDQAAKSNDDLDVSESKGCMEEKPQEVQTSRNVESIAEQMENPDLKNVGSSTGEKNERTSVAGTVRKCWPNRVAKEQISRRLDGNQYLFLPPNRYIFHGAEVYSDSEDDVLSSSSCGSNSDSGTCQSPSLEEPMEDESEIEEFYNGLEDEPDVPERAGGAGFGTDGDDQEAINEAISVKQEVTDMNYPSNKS
Outline: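 Activation reported as EC1.5, the compound concentration producing 150% of DMSO-control deacetylation, plus maximum fold activation. Readout is mass-spectrometric ratio of deacetylated to acetylated p53-based peptide (0.5 μM) after 25 min, 25 °C, with 120 μM βNAD+ and 10 nM His-tagged human SIRT1, pH 8.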

SMILES	% Fold Act. (percent maximum fold activation)	EC1.5 (concentration of test compound that results in 150% activation of SIRT1)
Cc1ccnc(NC(=O)c2cccc3ccc(-c4cccc(C(F)(F)F)c4)nc23)n1 [Compound 49]	A (Fold activation >200%)	A (EC1.5<1.0 uM)
Cc1ccc(-c2ccc3cccc(NC(=O)c4cscn4)c3n2)cc1F [Compound 213]	B (Fold Activation <200%)	A (EC1.5<1.0 uM)
O=C(Nc1cccc2ccc(-c3ccccc3)nc12)C1CCNCC1 [Compound 43]		C (EC1.5>25 uM)
Fc1c(-c2ccc3cccc(NCc4cccnc4)c3n2)cccc1C(F)(F)F [Compound 165]		C (EC1.5>25 uM)
Cc1cc(NC(=O)c2cccc3ccc(-c4cccc(N5CCOCC5)c4)nc23)sn1 [Compound 253]	A (Fold activation >200%)	A (EC1.5<1.0 uM)
O=C(Nc1ccncc1)c1cccc2ccc(-c3cccc(C(F)(F)F)c3)nc12 [Compound 32]	A (Fold activation >200%)	A (EC1.5<1.0 uM)
O=C(Nc1ccccn1)c1cccc2ncc(-c3ccccc3)nc12 [Compound 118]	B (Fold Activation <200%)	B (EC1.5 1-25 uM)
O=C(Nc1cccnc1)c1cccc2ccc(-c3cccc(C(F)(F)F)c3)nc12 [Compound 31]	A (Fold activation >200%)	A (EC1.5<1.0 uM)
O=C(Nc1cnccn1)c1cccc2ccc(-c3cccc(C(F)(F)F)c3)nc12 [Compound 16]	A (Fold activation >200%)	A (EC1.5<1.0 uM)
O=C(Nc1nccs1)c1cccc2ccc(-c3cccc(C(F)F)c3)nc12 [Compound 247]	A (Fold activation >200%)	A (EC1.5<1.0 uM)
FC(F)(F)Oc1cccc(-c2ccc3cccc(NCc4ccccn4)c3n2)c1 [Compound 65]		C (EC1.5>25 uM)
O=C(Nc1cccc2ccc(-c3ccccc3O)nc12)c1cscn1 [Compound 174]	A (Fold activation >200%)	B (EC1.5 1-25 uM)
O=C(Nc1cccc2ccc(-c3cccc(C(F)(F)F)c3)nc12)c1cocn1 [Compound 195]	B (Fold Activation <200%)	A (EC1.5<1.0 uM)
O=C(Nc1ncnc2ccc(-c3cccc(OC(F)(F)F)c3)nc12)c1cncs1 [Compound 309]	A (Fold activation >200%)	B (EC1.5 1-25 uM)
O=C(Nc1cccc2ccc(-c3cc(F)cc(C(F)(F)F)c3)nc12)c1ccccn1 [Compound 159]		C (EC1.5>25 uM)
Cc1cnc(NC(=O)c2cccc3ccc(-c4cccc(N5CCOCC5)c4)nc23)s1 [Compound 239]	A (Fold activation >200%)	A (EC1.5<1.0 uM)
O=C(Nc1cccc2ccc(-c3ccccc3)nc12)c1cccc(N2CCCC2)c1 [Compound 1]		C (EC1.5>25 uM)
O=C(Nc1ccc(CN2CCOCC2)nc1)c1cccc2ccc(-c3cccc(C(F)F)c3)nc12 [Compound 289]	A (Fold activation >200%)	A (EC1.5<1.0 uM)
O=C(Nc1cccc2ccc(-c3ccccc3OC(F)(F)F)nc12)c1cscn1 [Compound 92]	A (Fold activation >200%)	A (EC1.5<1.0 uM)
Cn1ccc(C(=O)Nc2cccc3ccc(-c4cccc(C(F)(F)F)c4)nc23)n1 [Compound 245]	A (Fold activation >200%)	A (EC1.5<1.0 uM)
O=C(Nc1cccc(N2CCOCC2)n1)c1cccc2ccc(-c3cccc(C(F)(F)F)c3)nc12 [Compound 319]	A (Fold activation >200%)	A (EC1.5<1.0 uM)

SMILES	% Fold Act. (percent maximum fold activation)	EC1.5 (concentration of test compound that results in 150% activation of SIRT1)
O=S(=O)(Nc1cccnc1)Nc1cccc2ccc(-c3cccc(OC(F)(F)F)c3)nc12 [Compound 114]		C (EC1.5>25 uM)
Cc1cncc(-c2ccc3cccc(C(=O)Nc4cccc(CN5CCOCC5)c4)c3n2)c1 [Compound 243]	A (Fold activation >200%)	A (EC1.5<1.0 uM)
Cc1nnc(NC(=O)c2cccc3ccc(-c4cccnc4)nc23)s1 [Compound 235]		C (EC1.5>25 uM)
O=C(Nc1nccs1)c1cccc2ccc(-c3cccnc3)nc12 [Compound 180]	B (Fold Activation <200%)	A (EC1.5<1.0 uM)
O=C(Nc1ncnc2ccc(-c3cccc(C(F)(F)F)c3)nc12)c1cccc(C(F)(F)F)c1 [Compound 258]		C (EC1.5>25 uM)
Cn1ccc(C(=O)Nc2cccc3ccc(-c4cncc(F)c4)nc23)n1 [Compound 284]		C (EC1.5>25 uM)
O=C(Nc1nccs1)c1cccc2ccc(-c3ccnc(N4CCOCC4)c3)nc12 [Compound 209]	B (Fold Activation <200%)	A (EC1.5<1.0 uM)
O=C(Nc1cccc2ccc(-c3ccc(F)c(C(F)(F)F)c3)nc12)c1ccccn1 [Compound 154]	B (Fold Activation <200%)	A (EC1.5<1.0 uM)
O=C(Nc1cccc2ccc(-c3cccnc3)nc12)c1cscn1 [Compound 76]	A (Fold activation >200%)	A (EC1.5<1.0 uM)
O=C(Nc1cccc(OCC(O)CO)c1)c1cccc2ccc(-c3cccc(C(F)(F)F)c3)nc12 (stereo not drawn) [Compound 151]	A (Fold activation >200%)	A (EC1.5<1.0 uM)
Cn1cnc(C(=O)Nc2cccc3ccc(-c4cccc(C(F)(F)F)c4)nc23)c1 [Compound 221]	A (Fold activation >200%)	A (EC1.5<1.0 uM)
O=C(Nc1ccc(CN2CCCC2)nc1)c1cccc2ccc(-c3cccc(C(F)F)c3)nc12 [Compound 290]	A (Fold activation >200%)	A (EC1.5<1.0 uM)
O=C(Nc1cccnc1Cl)c1cccc2ccc(-c3cccc(C(F)(F)F)c3)nc12 [Compound 57]	B (Fold Activation <200%)	B (EC1.5 1-25 uM)
O=C(N[C@H]1CCNC1)c1cccc2ccc(-c3cccc(C(F)(F)F)c3)nc12 [Compound 72]	B (Fold Activation <200%)	C (EC1.5>25 uM)
COC(=O)c1ccc(NC(=O)c2cccc3ccc(-c4cccc(C(F)(F)F)c4)nc23)o1 [Compound 61]	A (Fold activation >200%)	A (EC1.5<1.0 uM)
O=C(Nc1cccc(Cl)n1)c1cccc2ccc(-c3cccc(C(F)(F)F)c3)nc12 [Compound 89]		C (EC1.5>25 uM)
Cc1ncccc1-c1ccc2cccc(NC(=O)c3cscn3)c2n1 [Compound 196]	A (Fold activation >200%)	A (EC1.5<1.0 uM)
O=C(Nc1nccs1)Nc1cccc2ccc(-c3cccc(OC(F)(F)F)c3)nc12 [Compound 45]	B (Fold Activation <200%)	A (EC1.5<1.0 uM)
Cc1cncc(-c2ccc3cccc(C(=O)Nc4cccc(CN5CCOCC5)n4)c3n2)c1 [Compound 244]	A (Fold activation >200%)	A (EC1.5<1.0 uM)
O=C(Nc1cccnc1)c1cccc2cnc(-c3cccc(N4CCOCC4)c3)nc12 [Compound 314]	B (Fold Activation <200%)	A (EC1.5<1.0 uM)
